Measurements from publication PMC7840129, “Structural basis for heme-dependent NCoR binding to the transcriptional repressor REV-ERBβ” (Science Advances, 2021).

Target: T1, Apo REV-ERBβ LBD (Homo sapiens, UniProt Q14995)
T1 construct: The human REV-ERBβ LBD (residues 381 to 579) was previously cloned; 6xHis with 3C protease cleavage site (N, cleaved yes); made in house; host or cells: E. coli BL21(DE3)
T1 sequence (Q14995 381-579): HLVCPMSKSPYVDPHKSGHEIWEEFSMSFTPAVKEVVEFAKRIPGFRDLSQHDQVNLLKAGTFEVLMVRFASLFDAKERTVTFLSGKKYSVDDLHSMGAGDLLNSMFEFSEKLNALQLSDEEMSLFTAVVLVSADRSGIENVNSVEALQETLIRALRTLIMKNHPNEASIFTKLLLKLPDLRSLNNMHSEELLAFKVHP
Experiment: ITC, NCoR ID peptides with apo REV-ERBβ LBD
Format: binding
Source text: The human REV-ERBβ LBD (residues 381 to 579) was previously cloned into the pET46 vector ([18]). The mouse NCoR RID (residues 1942 to 2208 in the X50 splice variant), which has 87% sequence identity to human NCoR RID (100% sequence identity in the ID motifs), was previously cloned into the pET32 vector ([29]). NCoR RID mutants were generated by site-directed mutagenesis: The ID1 CoRNR box motif was mutated from […] to […] (ΔID1 and ΔID1ΔID2), and the ID2 CoRNR box motif was mutated from LEDIIRKAL to TEDTTRKAL (ΔID2 and ΔID1ΔID2), as these mutations were previously reported to disrupt CoRNR box binding ([10], [30]). Heme (Sigma-Aldrich, no. 51280) was prepared either as a 1 mM stock in dimethyl sulfoxide (DMSO) stored at 4°C or 50 mM stock in 0.2 M NaOH (solutions prepared in 0.2 M NaOH were always made fresh immediately before the experiment), where indicated. […] Human embryonic kidney (HEK) 293T cells (American Type Culture Collection, no. CRL-11268) were cultured in Dulbecco’s modified eagle medium (DMEM) supplemented with 10% fetal bovine serum, 2 mM L-glutamine, and 1% penicillin-streptomycin at 37°C and 5% CO2 under standard culture conditions. The pcDNA3.1^+ expression vector containing full-length human REV-ERBβ ([31]) and the pGL3-Bmal1-luciferase construct containing the Bmal1 promoter (−816 to +99 of the mouse Bmal1 promoter region) were used in HEK293T cell transfections. Site-directed mutagenesis was performed to mutate the proximal RORE (pRORE mutant), distal RORE (dRORE mutant), or both (p/dRORE mutant) in the pGL3-Bmal1-luciferase construct based on a previous study ([6]) where the ROREs were mutated to disrupt REV-ERBα activity.
Human REV-ERBβ LBD was expressed in BL21(DE3) Escherichia coli cells with an N-terminal hexahistidine (6xHis) tag separated by a 3C protease cleavage site. Expression was performed using auto-induction media: Cells were grown at 37°C for 5 hours, 30°C for 1 hour, and 18°C for 16 hours before harvesting by centrifugation. Pellets were resuspended in potassium phosphate lysis buffer [40 mM potassium phosphate (pH 7.4), 500 mM KCl, 15 mM imidazole, and 1 mM dithiothreitol (DTT)] supplemented with leupeptin, pepstatin A, lysozyme, and deoxyribonuclease (DNase) I and sonicated on ice. […] A 5-ml aliquot of 6xHis-tagged protein was purified by size exclusion chromatography using a Superdex 75 column equilibrated in time-resolved fluorescence energy transfer (TR-FRET) assay buffer [20 mM potassium phosphate (pH 7.4), 50 mM KCl, and 0.5 mM EDTA]; purified aliquots were stored at −80°C for TR-FRET assays. To cleave the 6xHis tag from the remaining protein, it was incubated overnight with 3C protease (generated in-house) via dialysis; then, protein was reloaded onto the HisTrap columns, and the flow-through was collected. Last, aggregates were removed by size exclusion chromatography using a Superdex 75 column and Hepes gel filtration buffer [20 mM Hepes (pH 7.4), 50 mM KCl, and 0.5 mM EDTA]. Greater than 95% purity was confirmed by SDS-PAGE. Protein was aliquoted and stored at −80°C.
ITC experiments were performed using a MicroCal iTC200. All experiments were solvent-matched and contained 0.1% DMSO (peptide vehicle) and 0.2% 0.2 M solution of NaOH (heme vehicle) final concentrations. NITPIC software ([37]) was used to calculate baselines and integrate curves and prepare experimental data for fitting in SEDPHAT, which was used to generate final binding affinity and thermodynamic parameter measurements ([38]).Final figures were exported to GUSSI for publication-quality figure preparation ([39]).
NCoR ID1 and NCoR ID2 peptides were prepared at 50 μM in assay buffer [20 mM Hepes (pH 7.4), 50 mM KCl, 0.5 mM EDTA, and 5 mM tris(2-carboxyethyl)phosphine (TCEP)], and REV-ERBβ LBD was prepared at 500 μM. […]

[1] = ID2 peptide, 25°C, fitted estimate due to low c value, 95% CI n.d.
[2] = ID1 peptide, pH 7.4, 25°C, 95% CI

affinity of apo LBD for peptide (in words) | thermodynamic profile of peptide binding (in words), apo | TΔS [1] | ΔG, free energy of binding [1] | ΔH, enthalpy of binding [1] | ΔG, free energy of binding [2] | ΔH, enthalpy of binding [2] | TΔS (ID1 peptide, pH 7.4, T constant at 25°C, 95% CI) | Compound
low affinity | enthalpically driven and exothermic | -4.2 kcal/mol | -5.6 kcal/mol | -9.7 kcal/mol |  |  |  | CC[C@H](C)[C@H](NC(=O)[C@H](CC(=O)O)NC(=O)[C@H](CCC(=O)O)NC(=O)[C@H](CC(C)C)NC(=O)CNC(=O)[C@H](CC(C)C)NC(=O)[C@H](CC(N)=O)NC(=O)[C@H](CO)NC(=O)[C@H](C)NC(=O)[C@@H]1CCCN1C(=O)[C@H](CC(=O)O)NC(C)=O)C(=O)N[C@H](C(=O)N[C@@H](CCCNC(=N)N)C(=O)N[C@@H](CCCCN)C(=O)N[C@@H](C)C(=O)N[C@@H](CC(C)C)C(=O)N[C@@H](CCSC)C(=O)NCC(=O)N[C@@H](CO)C(=O)N[C@@H](Cc1ccccc1)C(=O)N[C@@H](CC(=O)O)C(=O)N[C@@H](CC(=O)O)C(=O)N[C@@H](CCCCN)C(N)=O)[C@@H](C)CC [NCoR ID2 peptide]
high affinity | enthalpically driven and exothermic |  |  |  | -8.6 kcal/mol | -7.7 kcal/mol | 0.88 kcal/mol | Ac-RTHRLITLADHICQIITQDFARN-NH2 [NCoR ID1 peptide]
